Results taken from BindingDB's records for doi:10.1021/cb600276q (Genentech, 2006).
Where a SMILES comes first, the peptide text is derived from it.

Key:
Assay in all cases: Fluorescence Polarization Affinity Measurements.
Settings in all cases: pH 7.2; 22 °C
[1] = biological target: T1, Baculoviral IAP repeat-containing protein 2 [266-354] (Homo sapiens, UniProt Q13490)
T1 construct: 266-354
Method: (§1) Samples for fluorescence polarization affinity measurements were prepared by addition of serial dilutions of target protein to each well containing antagonist and polarization probe in the buffer. Samples were read after 30-min incubation. Fluorescence polarization values were plotted as a function of the antagonist concentration, and the IC50 values were obtained by fitting the data to a four-parameter equation using KaleidaGraph software. Ki values for the antagonists were determined from the IC50 values.

[2] = biological target: T2, Baculoviral IAP repeat-containing protein 3 [252-340] (Homo sapiens, UniProt Q13489)
T2 construct: 252-340
Method: as §1

[3] = biological target: T3, Complex of Baculoviral IAP repeat-containing protein 7 [1-159,S150G] and E3 ubiquitin-protein ligase XIAP [336-348] (Homo sapiens, UniProt Q96CA5, S150G)
T3 construct: 1-159; 336-348
Method: as §1

[4] = biological target: T4, E3 ubiquitin-protein ligase XIAP [241-356] (Homo sapiens, UniProt P98170)
T4 construct: 241-356
Method: as §1

Row | Ki [1] [nM] | Ki [2] [nM] | Ki [3] [nM] | Ki [4] [nM] | SMILES
1 | 50 | 130 |  |  | CN[C@@H](C)C(=O)N[C@H]1CCC[C@H]2SC(C)(C)[C@@H](C(=O)Nc3cc(C)nn3-c3ccccc3)N2C1=O [(3R,6S,9aR)-2,2-dimethyl-N-(3-methyl-1-phenyl-1H-pyrazol-5-yl)-6-[(2S)-2-(methylamino)propanamido]-5-oxo-octahydroazepino[2,1-b][1,3]thiazole-3-carboxamide]
2 | 110 | 490 |  |  | CN[C@@H](C)C(=O)N[C@H]1CCC[C@H]2SC[C@@H](C(=O)Nc3cc(C)nn3-c3ccccc3)N2C1=O [(3R,6S,9aR)-N-(3-methyl-1-phenyl-1H-pyrazol-5-yl)-6-[(2S)-2-(methylamino)propanamido]-5-oxo-octahydroazepino[2,1-b][1,3]thiazole-3-carboxamide]
3 | 30 | 70 | 40 | 50 | CC(C)[C@H](NC(=O)[C@H](C)N)C(=O)N1CCC[C@H]1C(=O)N[C@@H](Cc1c[nH]c2ccccc12)C(=O)O [L-alanyl-L-valyl-L-prolyl-L-tryptophan] (H-AVPW-OH)
